These are literature values, as cited in US20030008852A1, “Transdermal system containing acetylsalicylic acid for treatment of migraine” (priority 1999, published 2003).

The series deals with migraine. Conditions: oral, 235 mg every second day.

In the case of `CC(=O)Oc1ccccc1C(=O)O` [acetylsalicylic acid], the “reduction in the migraine recurrence rate compared with the placebo group” value is 20%.
